Test results taken from article PMC5612656, “In vitro and in vivo effects of 2,4 diaminoquinazoline inhibitors of the decapping scavenger enzyme DcpS: Context-specific modulation of SMN transcript levels” (PLoS ONE, 2017).

Tested on: spinal cord transcriptome
Experiment: RNA-Seq of spinal cord tissue from 2B/- and 2B/+ mice
Assay type: in vivo, mouse
[1] = 2B+ spinal cord RNA Seq polyA, WT-RG vs. WT-Veh, adjusted p-value 1.01E-05
[2] = 2B+ spinal cord RNA Seq polyA, WT-RG vs. WT-Veh, adjusted p-value 3.86E-06

## Nc1nc(N)c2c(OCC3CCN(Cc4c(Cl)cccc4Cl)CC3)cccc2n1 [RG3039]
[1]
  log2(fold-change) 4632404H12Rik transcript: 1.233
  log2(fold-change) Ifi44 transcript: 3.126
  log2(fold-change) Snhg11 transcript: 0.9645
[2]
  log2(fold-change) Scn10a transcript: -4.931
  log2(fold-change) Tmem233 transcript: -5.091
2B-Veh vs 2B-RG3039
  log2(fold-change) 1700024P16Rik: -0.9143
  log2(fold-change) 2010001M06Rik: -0.4589
  log2(fold-change) 2810417H13Rik: 0.7557
  log2(fold-change) 2810459M11Rik: 0.8489
  log2(fold-change) 6330444E15Rik: -1.493
  log2(fold-change) 8430408G22Rik: -1.92
  log2(fold-change) A230028O05Rik: -1.123
  log2(fold-change) AI429214: -0.7864
  log2(fold-change) AW495222: -0.8389
  log2(fold-change) Abcc4: -0.4948
  log2(fold-change) Acacb: -0.9081
  log2(fold-change) Acer2: -1.144
  log2(fold-change) Ada: -2.097
  log2(fold-change) Adhfe1: -0.3934
  log2(fold-change) Adipor2: -1.046
  log2(fold-change) Adm: -0.7407
  log2(fold-change) Alox12: 1.236
  log2(fold-change) Alpl: 0.9933
  log2(fold-change) Angptl2: 0.7515
  log2(fold-change) Angptl4: -1.6266
  log2(fold-change) Apln: 0.547
  log2(fold-change) Aplnr: 1.065
  log2(fold-change) Arrdc2: -1.418
  log2(fold-change) Arrdc3: -0.727
  log2(fold-change) Aspm: 0.9497
  log2(fold-change) Aurkb: 0.7105
  log2(fold-change) BC049352: -1.185
  log2(fold-change) BC064078: -0.6877
  log2(fold-change) Barx2: 0.4279
  log2(fold-change) Bdh2: -0.7221
  log2(fold-change) Bst2: 1.093
  log2(fold-change) Btbd16: -0.8478
  log2(fold-change) Bub1b: 0.7302
  log2(fold-change) C130074G19Rik: 0.558
  log2(fold-change) C330021F23Rik: 1.369
  log2(fold-change) C430049B03Rik: 0.7515
  log2(fold-change) Casc5: 0.9628
  log2(fold-change) Ccdc150: -0.9419
  log2(fold-change) Ccna2: 0.5769
  log2(fold-change) Ccnb1: 0.5224
  log2(fold-change) Ccnb2: 0.5384
  log2(fold-change) Cd101: -0.9911
  log2(fold-change) Cd248: 0.749
  log2(fold-change) Cdk1: 0.4623
  log2(fold-change) Cdkn1a: -0.7839
  log2(fold-change) Chaf1b: 0.7063
  log2(fold-change) Chodl: 0.3892
  log2(fold-change) Col8a1: 0.5045
  log2(fold-change) Col12a1: 0.6621
  log2(fold-change) Colq: -0.452
  log2(fold-change) Crispld1: 0.7708
  log2(fold-change) Cth: -0.9118
  log2(fold-change) Cxcl12: 0.9102
  log2(fold-change) D630039A03Rik: -0.7287
  log2(fold-change) Dao: -0.6435
  log2(fold-change) Dcxr: -0.6455
  log2(fold-change) Ddit4: -0.977
  log2(fold-change) Ddo: -0.6951
  log2(fold-change) Depdc1b: 0.6712
  log2(fold-change) Dlgap5: 0.6868
  log2(fold-change) Dnah8: 0.7242
  log2(fold-change) Dtl: 0.8053
  log2(fold-change) E230015J15Rik: -1.036
  log2(fold-change) Edn1: -1.282
  log2(fold-change) Ednrb: 0.7966
  log2(fold-change) Egfl6: 0.8631
  log2(fold-change) Elf5: 0.6236
  log2(fold-change) Entpd2: 0.5977
  log2(fold-change) Espl1: 0.7643
  log2(fold-change) Etnppl: -2.764
  log2(fold-change) Ets1: 0.8775
  log2(fold-change) Fabp7: 0.8454
  log2(fold-change) Fam64a: 0.6855
  log2(fold-change) Fam107a: -1.657
  log2(fold-change) Fam214a: -0.4707
  log2(fold-change) Fam83d: -1.4639
  log2(fold-change) Fas: -0.8656
  log2(fold-change) Fgf21: -1
  log2(fold-change) Fgfr4: 1.087
  log2(fold-change) Fkbp5: -1.583
  log2(fold-change) Fli1: 0.4642
  log2(fold-change) Fzd10: 1.186
  log2(fold-change) Galnt15: -1.568
  log2(fold-change) Gatsl3: -1.006
  log2(fold-change) Gkn3: 1.302
  log2(fold-change) Glul: -0.8158
  log2(fold-change) Gm266: 0.9562
  log2(fold-change) Gm807: -1.6695
  log2(fold-change) Gm10309: -1.704
  log2(fold-change) Gm11681: -1.051
  log2(fold-change) Gm13066: -1.415
  log2(fold-change) Gm16316: -0.9137
  log2(fold-change) Gm16958: -0.6452
  log2(fold-change) Gm21984: -0.8301
  log2(fold-change) Gm26645: 0.5748
  log2(fold-change) Gp2: 1.536
  log2(fold-change) Gpr50: 0.6598
  log2(fold-change) Gpx3: -0.9006
  log2(fold-change) Gsg2: 1
  log2(fold-change) Gstm1: -0.9261
  log2(fold-change) Gsx1: 1.082
  log2(fold-change) Hbegf: 0.4821
  log2(fold-change) Heph: -0.6747
  log2(fold-change) Hes5: 1.011
  log2(fold-change) Heyl: 0.7294
  log2(fold-change) Hif3a: -1.3266
  log2(fold-change) Hist1h1c: -0.9093
  log2(fold-change) Hist1h4h: -0.4829
  log2(fold-change) Hpgd: 1.149
  log2(fold-change) Hr: -1.031
  log2(fold-change) Hsf3: -1.087
  log2(fold-change) Iapp: -0.9349
  log2(fold-change) Id3: 0.7631
  log2(fold-change) Ier5: 0.6487
  log2(fold-change) Igf1: 0.4613
  log2(fold-change) Igsf1: 0.614
  log2(fold-change) Il12rb1: -1.3
  log2(fold-change) Itga6: 0.6885
  log2(fold-change) Itgb3: 0.5631
  log2(fold-change) Kcna5: -1.0224
  log2(fold-change) Kcne4: 0.8611
  log2(fold-change) Kdelr3: 0.5886
  log2(fold-change) Kdm4dl: -1.255
  log2(fold-change) Kif2c: 0.8365
  log2(fold-change) Klf15: -1.065
  log2(fold-change) Klhl30: 0.8074
  log2(fold-change) LRRC8A: -0.627
  log2(fold-change) Loxl1: 0.7115
  log2(fold-change) Lrrc8a: -0.9652
  log2(fold-change) Map3k6: -2.942
  log2(fold-change) Matn1: -1.5615
  log2(fold-change) Mcm6: 0.8445
  log2(fold-change) Mertk: -0.6404
  log2(fold-change) Mex3a: 0.9304
  log2(fold-change) Mgmt: -0.5604
  log2(fold-change) Mki67: 0.4816
  log2(fold-change) Mmp14: 0.9436
  log2(fold-change) Mrgprd: 1.807
  log2(fold-change) Mrpl41: -1.248
  log2(fold-change) Mycn: 0.9874
  log2(fold-change) Ncan: 0.7942
  log2(fold-change) Ncapg: 0.8309
  log2(fold-change) Neil3: 0.7885
  log2(fold-change) Nes: 0.5009
  log2(fold-change) Notum: 0.8827
  log2(fold-change) Nusap1: 0.4877
  log2(fold-change) Otoa: -1.049
  log2(fold-change) Pappa: 0.5579
  log2(fold-change) Pbk: 0.5785
  log2(fold-change) Pdk4: -1.799
  log2(fold-change) Per1: -0.8684
  log2(fold-change) Phactr3: -0.7376
  log2(fold-change) Phyhd1: -0.7387
  log2(fold-change) Pilrb2: -1.585
  log2(fold-change) Pirt: 0.7729
  log2(fold-change) Pmaip1: -0.9334
  log2(fold-change) Pmp2: 1.429
  log2(fold-change) Pnpla2: -1.095
  log2(fold-change) Pnpla7: -0.626
  log2(fold-change) Polr3e: -1.443
  log2(fold-change) Ppp1r1b: -1.252
  log2(fold-change) Prc1: 0.5813
  log2(fold-change) Prodh: -0.8352
  log2(fold-change) Pxmp2: -0.9238
  log2(fold-change) Pycr1: 1.135
  log2(fold-change) Rab11fip1: -0.4528
  log2(fold-change) Rasl2-9: -0.693
  log2(fold-change) Reg3b: 1.9386
  log2(fold-change) Rnase1: -0.7662
  log2(fold-change) Rorc: -0.6702
  log2(fold-change) Rsad2: 0.8406
  log2(fold-change) Scn10a: 1.7
  log2(fold-change) Scrg1: -0.8008
  log2(fold-change) Sdpr: -0.7672
  log2(fold-change) Sds: -2.356
  log2(fold-change) Serpinb5: -1.293
  log2(fold-change) Serpinh1: 0.3762
  log2(fold-change) Sgk1: -1.812
  log2(fold-change) Shroom1: -0.6614
  log2(fold-change) Slc13a3: 0.4446
  log2(fold-change) Slc13a5: 0.8562
